Measured values published in patent US20170356895A1, “TOXICANT ASSAYS FOR CONSUMABLE PRODUCTS” (priority 2016, published 2017).

System: zebrafish (Danio rerio) AB strain embryos
Experiment: Acute toxicity testing of extracts using zebrafish embryos (mortality rate after 48 hr exposure)
Format: in vivo
Settings: 3.7 mg/L
Protocol: Extracts prepared as described in Example 1 were tested for acute toxicity using zebrafish (Danio rerio) AB strain embryos. Chicken breast extracts were diluted into zebrafish embryo culture medium at 0.25, 0.50, 1.00, 2.00 and 4.00 μl/ml. Zebrafish AB strain embryos of 4-128 cell stages were exposed to extract dilutions in a 96-well plate at 1 embryo per well. Each concentration was tested with 20 embryos. Zebrafish embryo culture medium and 3.7 mg/L dichloroaniline were included as negative and positive controls, respectively. After 48 hr exposure at 26° C., zebrafish embryos were observed under a stereomicroscope and fish embryos that were coagulated, tail not detached, and having no heart beat were marked as dead. Mortality rate for each concentration was calculated as the acute toxicity endpoint. The mortality rate for the negative control was 0% and for the positive control was 65%.
The acute toxicity of milk powder extracts prepared as described in Example 4 were tested for acute toxicity using zebrafish (Danio rerio) AB strain embryos. Milk powder extracts were diluted into zebrafish embryo culture medium at 0.33, 0.50, 0.76, 1.74 and 4.00 μl/ml. Zebrafish AB strain embryos of 4-128 cell stages were exposed to extract dilutions in a 96-well plate with 1 embryo per well. […] Mortality rate of each concentration was calculated as the acute toxicity endpoint. […]

SMILES: Nc1ccc(Cl)c(Cl)c1 [3,4-dichloroaniline]
- Mortality rate for positive control (48-hr exposure at 26° C., Example 5 (milk powder test)): 60%
- Mortality rate for the positive control (48 hr exposure at 26° C., Example 2 (chicken breast test)): 65%
